Data as given in PubChem BioAssay AID1963967 (Molecular Pharmacology Branch, DTP, NCI, 2024).

Tested on: 855422-203-R-J1-PDC spheroids with HUVEC/MSC, viability
Assay: Anticancer human tumor 855422-203-R-J1-PDC patient-derived bladder carcinoma cell line growth inhibition [PI3K]
Conditions: for IC50: curve of first compound; for viability, T/C: stronger effect = lower value
Method in brief: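 Combination activity was assessed by viability in multicellular tumor spheroids carrying HUVEC and MSC components. Agents were tested with PI3K inhibitors from a Cmax-based top dose (or 10 microM) downward in half-log increments.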

[1] = second compound 0.00316 µM, first compound 0.00316 µM
[2] = second compound 0.00316 µM, first compound 0.01 µM
[3] = second compound 0.00316 µM, first compound 0.0316 µM
[4] = second compound 0.00316 µM, first compound 0.1 µM
[5] = second compound 0.01 µM, first compound 0.00316 µM
[6] = second compound 0.01 µM, first compound 0.01 µM
[7] = second compound 0.01 µM, first compound 0.0316 µM
[8] = second compound 0.01 µM, first compound 0.1 µM
[9] = second compound 0.0316 µM, first compound 0.00316 µM
[10] = second compound 0.0316 µM, first compound 0.01 µM
[11] = second compound 0.0316 µM, first compound 0.0316 µM
[12] = second compound 0.0316 µM, first compound 0.1 µM
[13] = second compound 0.0316 µM, first compound 0.316 µM
[14] = second compound 0.0316 µM, first compound 1 µM
[15] = second compound 0.1 µM, first compound 0.00316 µM
[16] = second compound 0.1 µM, first compound 0.01 µM
[17] = second compound 0.1 µM, first compound 0.0316 µM
[18] = second compound 0.1 µM, first compound 0.1 µM
[19] = second compound 0.1 µM, first compound 0.316 µM
[20] = second compound 0.1 µM, first compound 1 µM
[21] = second compound 0.316 µM, first compound 0.00316 µM
[22] = second compound 0.316 µM, first compound 0.01 µM
[23] = second compound 0.316 µM, first compound 0.0316 µM
[24] = second compound 0.316 µM, first compound 0.1 µM
[25] = second compound 0.316 µM, first compound 0.316 µM
[26] = second compound 0.316 µM, first compound 1 µM
[27] = second compound 1 µM, first compound 0.00316 µM
[28] = second compound 1 µM, first compound 0.01 µM
[29] = second compound 1 µM, first compound 0.0316 µM
[30] = second compound 1 µM, first compound 0.1 µM
[31] = second compound 1 µM, first compound 0.316 µM
[32] = second compound 1 µM, first compound 1 µM
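Further: agents incubated with spheroids for one week before read-out.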
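Wherever viability, T/C is given: 100% = DMSO vehicle-treated control wells.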

CCN1CCN(Cc2ccc(Nc3ncc(F)c(-c4cc(F)c5nc(C)n(C(C)C)c5c4)n3)nc2)CC1 + CC(Nc1ccc2c(c1)OCCn1cc(N3C(=O)OCC3C(F)F)nc1-2)C(N)=O
IC50 (second compound 0.00316 µM): > 1 µM
IC50 (second compound 0.01 µM): 0.791 µM
IC50 (second compound 0.0316 µM): 0.277 µM
IC50 (second compound 0.1 µM): 0.0707 µM
IC50 (second compound 0.316 µM): 0.00429 µM
IC50 (second compound 1 µM): < 0.00316 µM
viability, T/C [1]: 111%
viability, T/C [2]: 74.3%
viability, T/C [3]: 103%
viability, T/C [4]: 74.1%
viability, T/C (second compound 0.00316 µM, first compound 0.316 µM): 66.2%
viability, T/C (second compound 0.00316 µM, first compound 1 µM): 56.5%
viability, T/C [5]: 102%
viability, T/C [6]: 80%
viability, T/C [7]: 89.7%
viability, T/C [8]: 76%
viability, T/C (second compound 0.01 µM, first compound 0.316 µM): 56.7%
viability, T/C (second compound 0.01 µM, first compound 1 µM): 48.3%
viability, T/C [9]: 69.1%
viability, T/C [10]: 78.3%
viability, T/C [11]: 78.3%
viability, T/C [12]: 61.7%
viability, T/C [13]: 49.7%
viability, T/C [14]: 35.4%
viability, T/C [15]: 66%
viability, T/C [16]: 66.2%
viability, T/C [17]: 59.1%
viability, T/C [18]: 46.3%
viability, T/C [19]: 28.3%
viability, T/C [20]: 21%
viability, T/C [21]: 46.5%
viability, T/C [22]: 52%
viability, T/C [23]: 43.1%
viability, T/C [24]: 24.4%
viability, T/C [25]: 16.4%
viability, T/C [26]: 16.1%
viability, T/C [27]: 33%
viability, T/C [28]: 40.3%
viability, T/C [29]: 21.9%
viability, T/C [30]: 14.2%
viability, T/C [31]: 12.3%
viability, T/C [32]: 13.1%

C=CC(=O)N1CCN(c2nc(=O)n(-c3c(C)ccnc3C(C)C)c3nc(-c4c(O)cccc4F)c(F)cc23)C(C)C1 (stereo unspecified) + CC(Nc1ncnc2nc[nH]c12)c1cc2cccc(Cl)c2c(=O)n1-c1ccccc1
IC50 (second compound 0.0316 µM): > 10 µM
IC50 (second compound 0.1 µM): > 10 µM
IC50 (second compound 0.316 µM): > 10 µM
IC50 (second compound 1 µM): > 10 µM
IC50 (second compound 3.16 µM): > 10 µM
IC50 (second compound 10 µM): > 10 µM
viability, T/C [11]: 107%
viability, T/C [12]: 91.1%
viability, T/C [13]: 112%
viability, T/C [14]: 95%
viability, T/C (second compound 0.0316 µM, first compound 3.16 µM): 128%
viability, T/C (second compound 0.0316 µM, first compound 10 µM): 133%
viability, T/C [17]: 102%
viability, T/C [18]: 90.7%
viability, T/C [19]: 109%
viability, T/C [20]: 110%
viability, T/C (second compound 0.1 µM, first compound 3.16 µM): 119%
viability, T/C (second compound 0.1 µM, first compound 10 µM): 129%
viability, T/C [23]: 97.5%
viability, T/C [24]: 92%
viability, T/C [25]: 98.3%
viability, T/C [26]: 121%
viability, T/C (second compound 0.316 µM, first compound 3.16 µM): 122%
viability, T/C (second compound 0.316 µM, first compound 10 µM): 122%
viability, T/C [29]: 100%
viability, T/C [30]: 98.7%
viability, T/C [31]: 112%
viability, T/C [32]: 117%
viability, T/C (second compound 1 µM, first compound 3.16 µM): 122%
viability, T/C (second compound 1 µM, first compound 10 µM): 110%
viability, T/C (second compound 3.16 µM, first compound 0.0316 µM): 102%
viability, T/C (second compound 3.16 µM, first compound 0.1 µM): 102%
viability, T/C (second compound 3.16 µM, first compound 0.316 µM): 104%
viability, T/C (second compound 3.16 µM, first compound 1 µM): 115%
viability, T/C (second compound 3.16 µM, first compound 3.16 µM): 116%
viability, T/C (second compound 3.16 µM, first compound 10 µM): 101%
viability, T/C (second compound 10 µM, first compound 0.0316 µM): 108%
viability, T/C (second compound 10 µM, first compound 0.1 µM): 90.4%
viability, T/C (second compound 10 µM, first compound 0.316 µM): 104%
viability, T/C (second compound 10 µM, first compound 1 µM): 102%
viability, T/C (second compound 10 µM, first compound 3.16 µM): 115%
viability, T/C (second compound 10 µM, first compound 10 µM): 105%

CC(C)n1nc(-c2ccc3oc(N)nc3c2)c2c(N)ncnc21 + CC(Nc1ccc2c(c1)OCCn1cc(N3C(=O)OCC3C(F)F)nc1-2)C(N)=O
IC50 (second compound 0.00316 µM): 0.0518 µM
IC50 (second compound 0.01 µM): 0.0439 µM
IC50 (second compound 0.0316 µM): 0.038 µM
IC50 (second compound 0.1 µM): 0.0268 µM
IC50 (second compound 0.316 µM): 0.00608 µM
IC50 (second compound 1 µM): < 0.000316 µM
viability, T/C (second compound 0.00316 µM, first compound 0.000316 µM): 113%
viability, T/C (second compound 0.00316 µM, first compound 0.001 µM): 90.1%
viability, T/C [1]: 108%
viability, T/C [2]: 92.3%
viability, T/C [3]: 74.2%
viability, T/C [4]: 18.3%
viability, T/C (second compound 0.01 µM, first compound 0.000316 µM): 87.7%
viability, T/C (second compound 0.01 µM, first compound 0.001 µM): 92.9%
viability, T/C [5]: 98.7%
viability, T/C [6]: 81.4%
viability, T/C [7]: 63.1%
viability, T/C [8]: 19%
viability, T/C (second compound 0.0316 µM, first compound 0.000316 µM): 91%
viability, T/C (second compound 0.0316 µM, first compound 0.001 µM): 84.4%
viability, T/C [9]: 82%
viability, T/C [10]: 72%
viability, T/C [11]: 59.6%
viability, T/C [12]: 14.4%
viability, T/C (second compound 0.1 µM, first compound 0.000316 µM): 71.8%
viability, T/C (second compound 0.1 µM, first compound 0.001 µM): 72.7%
viability, T/C [15]: 78.7%
viability, T/C [16]: 69.9%
viability, T/C [17]: 46.6%
viability, T/C [18]: 11.4%
viability, T/C (second compound 0.316 µM, first compound 0.000316 µM): 59.3%
viability, T/C (second compound 0.316 µM, first compound 0.001 µM): 55.9%
viability, T/C [21]: 58.7%
viability, T/C [22]: 43.3%
viability, T/C [23]: 32.7%
viability, T/C [24]: 7.57%
viability, T/C (second compound 1 µM, first compound 0.000316 µM): 39.8%
viability, T/C (second compound 1 µM, first compound 0.001 µM): 38.4%
viability, T/C [27]: 36%
viability, T/C [28]: 34%
viability, T/C [29]: 24.1%
viability, T/C [30]: 6.71%
